Laboratory results taken from article PMC9646721, “Alkaloid binding to opium poppy major latex proteins triggers structural modification and functional aggregation” (Nature Communications, 2022).
≈ marks a conversion by molar mass, not a printed value. Where “and” joins values, the source holds several entries; their conditions need not be identical. Identical values can stand only once. Like-named read-outs stand apart in the source and are kept apart here.

What was measured:
PR10-10 [1] = biological target: T1, PR10-10 (Papaver somniferum, UniProt A0A9Y2YA81); assay: Isothermal titration calorimetry; assay type: binding; settings: for Kd: ITC
T1 sequence (A0A9Y2YA81 1-158): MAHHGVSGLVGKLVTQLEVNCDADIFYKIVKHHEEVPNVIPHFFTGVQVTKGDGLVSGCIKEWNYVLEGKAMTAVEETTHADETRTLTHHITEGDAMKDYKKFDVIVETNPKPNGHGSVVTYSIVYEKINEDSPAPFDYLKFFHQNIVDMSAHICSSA
Procedure: ITC experiments were conducted using a Microcal VP instrument (Malvern Pananalytical, Malvern, UK). […] Eluates were twice dialysed to equilibrium (i.e., 10–12 h at 4 °C) against a 1000-fold (2–4 L) volume of PBS, pH 7.4 (25 mM sodium phosphate, 50 mM NaCl) or CBS, pH 5.5, resulting in a theoretical million-fold dilution of undesired small molecules (e.g., <0.2 µM imidazole). Dialysis was carried out in boiled Spectra/Por 1 6–8 kDa MWCO 0.32 ml/cm (Spectrum Labs, USA) tubing thoroughly washed with either buffer before use. The second 1000-fold volume of dialysis buffer was filtered and degassed using a reusable bottle-top filtration apparatus (Nalgene, USA) with disposable […] cellulose filters (VWR, Canada) prior to storage at 4 °C. Ligands were dissolved in the filtered dialysis buffer at 21 °C for approximately one hour, and any insoluble material was removed by repeated centrifugation at 21,000 × g for 10 min. […] Prior to ITC, which was initiated immediately following dialysis, the protein solutions were centrifuged at 17,000 × g and 4 °C for 30 min. Any precipitate was separated from the remaining soluble protein fraction which was quantified by absorption at A280nm and diluted with filtered dialysis buffer immediately before use.
Thermograms were recorded at 25 °C, with a reference power of 10 (dpu/sec) and monitoring of 30 injections of 9 µl BIA ligand solutions into a sample cell containing 1.4 ml of an MLP/PR10 protein solution, with 300 seconds between injections. […] To ensure that we report only the heat of reaction for each interaction, independent titrations of ligand into buffer, and buffer into protein solutions, were used to calculate and then subtract heats of dilution. After subtraction, binding isotherms were analyzed in MicroCal Origin 7 (MicroCal, USA) by fitting a single-site binding model using non-linear least squares regression analysis repeated until convergence. […] Each ITC experiment was repeated 2 to 4 times.

PR10-10 [2] = biological target: T1, PR10-10; assay: ANS displacement assay; assay type: binding; settings: ANS displacement dose-response fit
Excerpt: (§1) Eluates were store separately on ice.
(§2) Displacement of ANS is associated with reduced fluorescence.

NISO = NISO (Papaver somniferum, UniProt P0DYP9); assay: ANS displacement assay
Procedure: (§3) 8-anilino-1-naphthalenesulfonic acid (ANS) fluorescence binding curves and the binding-induced reduction in ANS fluorescence resulting from competition with tested ligands across a range of concentration facilitated the measurement of IC50 and an estimate of Kd values using the binding models and procedures described previously[70]. […] ANS was dissolved in dimethylsufoxide at a concentration of 20 mM, stored at −20 °C until dilution and protected from exposure to light. […] 40 µl of the ANS solution and 40 µl of each MLP/PR10 protein solution were combined to 80 µl final reaction volumes, which were incubated at 21 °C for 10 min to allow equilibration of binding. Triplicate 18-µl aliquots were withdrawn from each 80 µl reaction, transferred to optically clear PCR tubes (Diamed, Canada) and ANS fluorescence was measured following an additional 3-min incubation at 30 °C using a Qiagen Rotor-gene Q 6-plex with excitation and emission filters of 365 ± 20 nm and 460 ± 20 nm, respectively. An identical reaction series whereby protein was omitted from the mixtures was measured under identical conditions and trace fluorescence was subtracted from each MLP/PR10 protein-containing sample. Each data set was scaled so that the maximum observed fluorescence corresponded to 100% and individual data points were plotted, and a rectangular hyperbolic ligand binding function was fit, using least-squares analysis (Prism 5 software, Graphpad, USA). Experiments were repeated at least twice with independently prepared protein.
(§4) Displacement of ANS is associated with reduced fluorescence. […] Briefly, 40 µl of 20 µM ANS and individual MLP/ PR10 protein solutions were combined in CBS buffer, pH 5.5, incubated at 21 °C for 5 min, mixed with 40 µl of separate 0 to 6 mM BIA solutions in CBS buffer, pH 5.5, and the 80 µl reactions were subsequently incubated for 10 min at 21 °C. Fluorescence was measured as described above, including subtraction of any fluorescence in a blank series whereby protein was omitted. […] Each experiment was repeated at least twice with independently prepared MLP/PR10 proteins and BIA ligand.

THS2 = THS2 (Papaver somniferum, UniProt A0A2U9GGW3); assay: ANS displacement assay
Procedure: as §3, §4

MLP2 = assay: ANS displacement assay; assay type: binding, Papaver somniferum
Excerpt: as §1, §2

PR10-4 = assay: ANS displacement assay; assay type: binding, Papaver somniferum
Excerpt: as §1, §2

PR10-12 = assay: ANS displacement assay; assay type: binding, Papaver somniferum
Excerpt: as §1, §2

[3] = Sucrose density-gradient fractionation of Przemko latex with exogenous alkaloid; design: species or system Papaver somniferum; settings: exogenous alkaloid (420-460 mM) added to 80 µL Przemko latex, 14-66% sucrose gradient
Procedure: Sucrose solutions (66%, 58%, 46%, 38%, 30%, 24 and 14% [w/v]) were prepared in 50 mM HEPES, pH 7.0, containing 5 mM EDTA. Continuous sucrose density gradients were prepared by layering the solutions (3 mL of 66, 58 and 46%, 6 mL of 38%, and 7 mL of 30, 24 and 14% [w/v] sucrose) in 38-mL thin-wall ultracentrifuge tubes (Beckman Coulter, USA) followed by equilibration at 4 °C for 24 h. Fresh latex (80 µL) was collected from decapitated unripe seed capsules in 1.5-mL microcentrifuge tubes and stored on ice for immediate loading on the sucrose gradients. […] Samples were incubated on ice for 30 min then diluted in 2 mL of latex suspension buffer (500 mM mannitol, 50 mM HEPES, pH 7.0, 5 mM EDTA, 1 mM PMSF) and layered onto sucrose density gradients, which were then centrifuged in an AH-629 rotor (Sorvall, USA) for 3 h at 100,000 × g at 4 °C. The bottom of the ultracentrifuge tube was punctured by a flame-heated 21 G needle and a total of 22 fractions (~1.7 mL) were collected manually. The refractive index of each fraction was measured by a digital refractometer (Reichert, USA) and converted to density. Protein concentration was determined by Bradford assay (BioRad, USA) and samples were stored at −80 °C until use.

MLP15 = biological target: T2, MLP15 (Papaver somniferum, UniProt P19825); assay: ANS displacement assay
T2 sequence (P19825 1-159): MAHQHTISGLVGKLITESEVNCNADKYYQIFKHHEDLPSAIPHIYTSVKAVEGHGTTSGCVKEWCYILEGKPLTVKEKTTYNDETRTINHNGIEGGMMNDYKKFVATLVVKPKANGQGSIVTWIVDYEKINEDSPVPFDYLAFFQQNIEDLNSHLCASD
Procedure: as §3, §4

[4] = Ligand solubility threshold in ITC buffer; assay type: physicochemical; settings: filtered dialysis buffer (CBS, 21 °C, aqueous buffer, thermodynamic from solid); pH 5.5, ITC buffer
Procedure: ITC experiments were conducted using a Microcal VP instrument (Malvern Pananalytical, Malvern, UK). Recombinant MLP/PR10 protein preparation involving production in Escherichia coli followed by cobalt-affinity chromatography was optimized to yield relatively high purity in a single step as determined by SDS-PAGE and colloidal Coomassie blue silver staining. The less than 48 h decrease in atmospheric oxygen exposure generated high-quality proteins with reduced precipitate. […] Eluates were twice dialysed to equilibrium (i.e., 10–12 h at 4 °C) against a 1000-fold (2–4 L) volume of PBS, pH 7.4 (25 mM sodium phosphate, 50 mM NaCl) or CBS, pH 5.5, resulting in a theoretical million-fold dilution of undesired small molecules (e.g., <0.2 µM imidazole). […] Any precipitate was separated from the remaining soluble protein fraction which was quantified by absorption at A280nm and diluted with filtered dialysis buffer immediately before use.
Thermograms were recorded at 25 °C, with a reference power of 10 (dpu/sec) and monitoring of 30 injections of 9 µl BIA ligand solutions into a sample cell containing 1.4 ml of an MLP/PR10 protein solution, with 300 seconds between injections. […] After subtraction, binding isotherms were analyzed in MicroCal Origin 7 (MicroCal, USA) by fitting a single-site binding model using non-linear least squares regression analysis repeated until convergence. […]

[5] = CBS pH 5.5, printed in brackets beside *, read-out: Kd (estimate, low enthalpy system)
[6] = 10 µM protein and 10 µM ANS, CBS pH 5.5
[7] = from average IC50 and PR10-ANS Kd, competitive inhibition assumed, read-out: Estimated Kd

Sequence of NISO (P0DYP9 entry or part of it): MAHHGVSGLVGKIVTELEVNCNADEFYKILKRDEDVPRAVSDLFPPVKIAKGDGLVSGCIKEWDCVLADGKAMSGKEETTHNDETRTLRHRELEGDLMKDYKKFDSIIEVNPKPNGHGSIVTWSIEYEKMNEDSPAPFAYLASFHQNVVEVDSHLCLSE
Sequence of THS2 (A0A2U9GGW3 whole entry): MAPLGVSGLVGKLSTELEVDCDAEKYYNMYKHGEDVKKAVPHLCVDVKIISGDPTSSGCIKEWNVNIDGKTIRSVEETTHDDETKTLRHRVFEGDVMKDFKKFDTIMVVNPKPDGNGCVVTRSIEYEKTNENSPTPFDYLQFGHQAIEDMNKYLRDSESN

## COc1cc2c(cc1OC)[C@@H]1Cc3ccc(OC)c(OC)c3CN1CC2 [Tetrahydropalmatine]
PR10-10 [1]; [5]
  Kd: 180 ± 133 µM

## COc1ccc(Cc2nccc3cc(OC)c(OC)cc23)cc1OC [Papaverine, papaverine]
PR10-10 [2]
  Hill Slope: -0.36 ± 0.27
PR10-10 [1]; ITC thermogram, pH 5.5
  heat change of protein-ligand interaction after subtraction of the blank: -0.2 µcal/s
PR10-10 [1]; CBS buffer, Fig. 4b prints no unit, read-out: Kd
  Kd: ~225 µM
PR10-10 [1]; [5]
  Kd: 225 µM
NISO
  Kd: 82 µM
NISO; IC50, NISO, 10 µM protein and 10 µM ANS, CBS pH 5.5
  IC50: 96 µM and 95.5 µM
NISO; NISO, 10 µM protein and 10 µM ANS, CBS pH 5.5
  Log10IC50: 1.98 ± 0.05
NISO; NISO, ANS displacement dose-response fit
  Hill Slope: -1.20 ± 0.05
THS2
  Kd: 333 µM
THS2; IC50, THS2, 10 µM protein and 10 µM ANS, CBS pH 5.5
  IC50: 493 µM
THS2; THS2, 10 µM protein and 10 µM ANS, CBS pH 5.5
  Log10IC50: 2.69 ± 0.71
THS2; THS2, ANS displacement dose-response fit
  Hill Slope: -0.88 ± 0.34
MLP2; [6]
  IC50: 61.4 µM
  Log10IC50: 1.79 ± 0.07
MLP2; [7]
  Kd: 45.5 µM
PR10-4; [6]
  IC50: 41.7 µM
  Log10IC50: 1.62 ± 0.05
PR10-4; [7]
  Kd: 38.1 µM
PR10-12; [6]
  IC50: 158 µM
  Log10IC50: 2.20 ± 0.09
PR10-12; [7]
  Kd: 154 µM
[3]
  formation of dense aggregate bands in gradient: one or more visibly insoluble dense aggregate bands
MLP15
  Kd: 265 µM
MLP15; IC50, MLP15, 10 µM protein and 10 µM ANS, CBS pH 5.5
  IC50: 299 µM
MLP15; MLP15, 10 µM protein and 10 µM ANS, CBS pH 5.5
  Log10IC50: 2.48 ± 0.08
MLP15; MLP15, ANS displacement dose-response fit
  Hill Slope: -1.21 ± 0.08
[4]
  solubility: 1200 µM (≈ 407 µg/mL)
